Test [1] addresses T1, MASL1 (Homo sapiens, UniProt Q9Y4C4).
T1 construct: gene MFHAS1; overexpressed in HEK293T, clarified lysate; plasmid from Genecopoeia
T1 sequence (Q9Y4C4 2-1052): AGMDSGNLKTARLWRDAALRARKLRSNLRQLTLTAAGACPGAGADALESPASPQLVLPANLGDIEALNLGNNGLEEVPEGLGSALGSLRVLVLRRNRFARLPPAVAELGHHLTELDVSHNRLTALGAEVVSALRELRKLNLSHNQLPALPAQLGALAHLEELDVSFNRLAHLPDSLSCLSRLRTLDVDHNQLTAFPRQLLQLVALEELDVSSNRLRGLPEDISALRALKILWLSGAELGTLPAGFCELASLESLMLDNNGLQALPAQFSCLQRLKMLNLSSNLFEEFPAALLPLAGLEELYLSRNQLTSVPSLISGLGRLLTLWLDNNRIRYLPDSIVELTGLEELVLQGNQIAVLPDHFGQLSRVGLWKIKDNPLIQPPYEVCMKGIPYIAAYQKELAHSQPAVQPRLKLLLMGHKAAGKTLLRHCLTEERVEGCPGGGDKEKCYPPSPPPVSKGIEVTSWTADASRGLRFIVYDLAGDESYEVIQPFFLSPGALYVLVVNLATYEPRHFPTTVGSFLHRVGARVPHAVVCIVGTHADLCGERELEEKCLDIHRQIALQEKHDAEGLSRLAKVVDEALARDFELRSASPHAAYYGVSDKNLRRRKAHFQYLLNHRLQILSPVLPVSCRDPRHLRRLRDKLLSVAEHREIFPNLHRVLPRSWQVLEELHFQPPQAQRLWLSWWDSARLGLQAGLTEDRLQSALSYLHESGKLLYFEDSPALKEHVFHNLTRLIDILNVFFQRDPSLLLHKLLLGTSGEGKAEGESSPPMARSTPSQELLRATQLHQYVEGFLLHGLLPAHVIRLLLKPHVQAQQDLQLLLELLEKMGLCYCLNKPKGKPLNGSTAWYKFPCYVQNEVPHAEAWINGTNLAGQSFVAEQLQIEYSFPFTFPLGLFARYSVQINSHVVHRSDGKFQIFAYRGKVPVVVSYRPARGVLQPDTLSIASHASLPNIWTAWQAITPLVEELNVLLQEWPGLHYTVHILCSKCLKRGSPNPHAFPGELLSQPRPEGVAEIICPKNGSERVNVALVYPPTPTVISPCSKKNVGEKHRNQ
The test is described as follows: size exclusion chromatography of lysate, shift between HMW and LMW complex, dot blot. The class given is biochemical. Particulars: 200 µM GDP in HEK293T lysate and mobile phase, pH 7.5; indirect read-out of binding, K422A used as control.

Test [2] has as its target T1, MASL1. The test is described as follows: pulldown on GTP-sepharose beads, competition with free GTP, immunoblot. In kind it is binding. Particulars: clarified HEK293T lysate, 4 °C, 2 h; free GTP 10 mM; immobilised GTP; ROC domain site.

We go through two compounds from article PMC3995007, “GTP binding controls complex formation by the human ROCO protein MASL1” (The Febs Journal, 2013).

The structures appear in SMILES notation.

As to `Nc1nc2c(ncn2[C@@H]2O[C@H](COP(=O)(O)OP(=O)(O)O)[C@@H](O)[C@H]2O)c(=O)[nH]1` [GDP], the “size exclusion chromatography of lysate, shift between HMW and LMW complex, dot” value in test [1] was “GDP shifted the equilibrium between LMW and HMW complex towards the latter”.

With `Nc1nc2c(ncn2[C@@H]2O[C@H](COP(=O)(O)OP(=O)(O)OP(=O)(O)O)[C@@H](O)[C@H]2O)c(=O)[nH]1` [GTP], the “pulldown on GTP-sepharose beads, competition with free GTP, immunoblot” value in test [2] is listed as “Wild type HA-tagged MASL1 was able to bind GTP immobilized on sepharose beads”.
